Measured values from ChEMBL document CHEMBL5724914, “Linking interpersonal differences in gut microbiota composition and drug biotransformation activity” (2024).
Note: call rule not given here.

Assay: (§1) The drug is tested on Z-030 corresponding to mouse gut metagenome with ENA study accession number: PRJEB37062 and ENA sample accession number: ERS12561829 for biotransformation under anaerobic condition. The drug concentrations were measured over 9 timepoints collected between 0 and 24 hours of incubation by liquid-chromatography-coupled mass spectrometry (LC–MS)
Conditions: 2 µM
In the case of `C=CCN1CC[C@]23c4c5ccc(O)c4O[C@H]2C(=O)CC[C@@]3(O)[C@H]1C5` [NALOXONE], the “Bacterial Biotransformation” value is reported as “Compound NOT metabolized”. With `CCN(CC)CC#CCOC(=O)C(O)(c1ccccc1)C1CCCCC1.Cl` (stereo not given) [OXYBUTYNIN CHLORIDE] the “Bacterial Biotransformation” value was “Compound NOT metabolized”.

Assay: as §1, with “Z-028” for “Z-030”, “ERS12561827” for “ERS12561829”
Conditions: 2 µM
In the case of `C=CCN1CC[C@]23c4c5ccc(O)c4O[C@H]2C(=O)CC[C@@]3(O)[C@H]1C5` [NALOXONE], the “Bacterial Biotransformation” value is reported as “Compound NOT metabolized”. In the case of `CCN(CC)CC#CCOC(=O)C(O)(c1ccccc1)C1CCCCC1.Cl` (stereo not given) [OXYBUTYNIN CHLORIDE], the “Bacterial Biotransformation” value is reported as “Compound NOT metabolized”.

Assay: as §1, with “Z-027” for “Z-030”, “to” for “to mouse gut”, “ERS12561826” for “ERS12561829”
Conditions: 2 µM
With `C=CCN1CC[C@]23c4c5ccc(O)c4O[C@H]2C(=O)CC[C@@]3(O)[C@H]1C5` [NALOXONE] the “Bacterial Biotransformation” value was “Compound NOT metabolized”. In the case of `CCN(CC)CC#CCOC(=O)C(O)(c1ccccc1)C1CCCCC1.Cl` (stereo not given) [OXYBUTYNIN CHLORIDE], the “Bacterial Biotransformation” value is reported as “Compound NOT metabolized”.

Assay: as §1, with “Z-026” for “Z-030”, “to” for “to mouse gut”, “ERS12561825” for “ERS12561829”
Conditions: 2 µM
In the case of `C=CCN1CC[C@]23c4c5ccc(O)c4O[C@H]2C(=O)CC[C@@]3(O)[C@H]1C5` [NALOXONE], the “Bacterial Biotransformation” value is reported as “Compound NOT metabolized”. For `CCN(CC)CC#CCOC(=O)C(O)(c1ccccc1)C1CCCCC1.Cl` (stereo not given) [OXYBUTYNIN CHLORIDE], the “Bacterial Biotransformation” value was “Compound NOT metabolized”.

Assay: as §1, with “Z-024” for “Z-030”, “pig” for “mouse”, “ERS12561823” for “ERS12561829”
Conditions: 2 µM
For `C=CCN1CC[C@]23c4c5ccc(O)c4O[C@H]2C(=O)CC[C@@]3(O)[C@H]1C5` [NALOXONE], the “Bacterial Biotransformation” value was “Compound NOT metabolized”. In the case of `CCN(CC)CC#CCOC(=O)C(O)(c1ccccc1)C1CCCCC1.Cl` (stereo not given) [OXYBUTYNIN CHLORIDE], the “Bacterial Biotransformation” value is reported as “Compound metabolized”.

Assay: as §1, with “Z-020” for “Z-030”, “rabbit” for “mouse”, “ERS12561819” for “ERS12561829”
Conditions: 2 µM
For `C=CCN1CC[C@]23c4c5ccc(O)c4O[C@H]2C(=O)CC[C@@]3(O)[C@H]1C5` [NALOXONE], the “Bacterial Biotransformation” value was “Compound NOT metabolized”. For `CCN(CC)CC#CCOC(=O)C(O)(c1ccccc1)C1CCCCC1.Cl` (stereo not given) [OXYBUTYNIN CHLORIDE], the “Bacterial Biotransformation” value was “Compound metabolized”.

Assay: as §1, with “Z-010” for “Z-030”, “to” for “to mouse gut”, “ERS12561810” for “ERS12561829”
Conditions: 2 µM
With `C=CCN1CC[C@]23c4c5ccc(O)c4O[C@H]2C(=O)CC[C@@]3(O)[C@H]1C5` [NALOXONE] the “Bacterial Biotransformation” value was “Compound NOT metabolized”. In the case of `CCN(CC)CC#CCOC(=O)C(O)(c1ccccc1)C1CCCCC1.Cl` (stereo not given) [OXYBUTYNIN CHLORIDE], the “Bacterial Biotransformation” value is reported as “Compound metabolized”.

Assay: as §1, with “Z-004” for “Z-030”, “to” for “to mouse gut”, “ERS12561804” for “ERS12561829”
Conditions: 2 µM
For `C=CCN1CC[C@]23c4c5ccc(O)c4O[C@H]2C(=O)CC[C@@]3(O)[C@H]1C5` [NALOXONE], the “Bacterial Biotransformation” value was “Compound NOT metabolized”. With `CCN(CC)CC#CCOC(=O)C(O)(c1ccccc1)C1CCCCC1.Cl` (stereo not given) [OXYBUTYNIN CHLORIDE] the “Bacterial Biotransformation” value was “Compound metabolized”.

Assay: as §1, with “Z-002” for “Z-030”, “rabbit” for “mouse”, “ERS12561802” for “ERS12561829”
Conditions: 2 µM
In the case of `C=CCN1CC[C@]23c4c5ccc(O)c4O[C@H]2C(=O)CC[C@@]3(O)[C@H]1C5` [NALOXONE], the “Bacterial Biotransformation” value is reported as “Compound NOT metabolized”. For `CCN(CC)CC#CCOC(=O)C(O)(c1ccccc1)C1CCCCC1.Cl` (stereo not given) [OXYBUTYNIN CHLORIDE], the “Bacterial Biotransformation” value was “Compound metabolized”.

Assay: as §1, with “Z-001” for “Z-030”, “ERS12561801” for “ERS12561829”
Conditions: 2 µM
With `C=CCN1CC[C@]23c4c5ccc(O)c4O[C@H]2C(=O)CC[C@@]3(O)[C@H]1C5` [NALOXONE] the “Bacterial Biotransformation” value was “Compound metabolized”. In the case of `CCN(CC)CC#CCOC(=O)C(O)(c1ccccc1)C1CCCCC1.Cl` (stereo not given) [OXYBUTYNIN CHLORIDE], the “Bacterial Biotransformation” value is reported as “Compound metabolized”.

Assay: as §1, with “WLS-370” for “Z-030”, “human” for “mouse”, “ERS12561793” for “ERS12561829”
Conditions: 2 µM
With `C=CCN1CC[C@]23c4c5ccc(O)c4O[C@H]2C(=O)CC[C@@]3(O)[C@H]1C5` [NALOXONE] the “Bacterial Biotransformation” value was “Compound NOT metabolized”. In the case of `CCN(CC)CC#CCOC(=O)C(O)(c1ccccc1)C1CCCCC1.Cl` (stereo not given) [OXYBUTYNIN CHLORIDE], the “Bacterial Biotransformation” value is reported as “Compound metabolized”.

Assay: as §1, with “WLS-170” for “Z-030”, “human” for “mouse”, “ERS12561762” for “ERS12561829”
Conditions: 2 µM
With `C=CCN1CC[C@]23c4c5ccc(O)c4O[C@H]2C(=O)CC[C@@]3(O)[C@H]1C5` [NALOXONE] the “Bacterial Biotransformation” value was “Compound NOT metabolized”. In the case of `CCN(CC)CC#CCOC(=O)C(O)(c1ccccc1)C1CCCCC1.Cl` (stereo not given) [OXYBUTYNIN CHLORIDE], the “Bacterial Biotransformation” value is reported as “Compound metabolized”.

Assay: as §1, with “WLS-090” for “Z-030”, “human” for “mouse”, “ERS12561753” for “ERS12561829”
Conditions: 2 µM
For `C=CCN1CC[C@]23c4c5ccc(O)c4O[C@H]2C(=O)CC[C@@]3(O)[C@H]1C5` [NALOXONE], the “Bacterial Biotransformation” value was “Compound NOT metabolized”. In the case of `CCN(CC)CC#CCOC(=O)C(O)(c1ccccc1)C1CCCCC1.Cl` (stereo not given) [OXYBUTYNIN CHLORIDE], the “Bacterial Biotransformation” value is reported as “Compound metabolized”.

Conditions: human gut metagenome, 24 h, 2 µM
With `C=CCN1CC[C@]23c4c5ccc(O)c4O[C@H]2C(=O)CC[C@@]3(O)[C@H]1C5` [NALOXONE] the “Bacterial Biotransformation” value was “Compound metabolized”. In the case of `CCN(CC)CC#CCOC(=O)C(O)(c1ccccc1)C1CCCCC1.Cl` (stereo not given) [OXYBUTYNIN CHLORIDE], the “Bacterial Biotransformation” value is reported as “Compound metabolized”.

Conditions: human gut metagenome, 24 h, 2 µM
Remark: another data set of the same source
With `C=CCN1CC[C@]23c4c5ccc(O)c4O[C@H]2C(=O)CC[C@@]3(O)[C@H]1C5` [NALOXONE] the “Bacterial Biotransformation” value was “Compound NOT metabolized”. In the case of `CCN(CC)CC#CCOC(=O)C(O)(c1ccccc1)C1CCCCC1.Cl` (stereo not given) [OXYBUTYNIN CHLORIDE], the “Bacterial Biotransformation” value is reported as “Compound metabolized”.

Conditions: human gut metagenome, 24 h, 2 µM
Remark: another data set of the same source
For `C=CCN1CC[C@]23c4c5ccc(O)c4O[C@H]2C(=O)CC[C@@]3(O)[C@H]1C5` [NALOXONE], the “Bacterial Biotransformation” value was “Compound NOT metabolized”. For `CCN(CC)CC#CCOC(=O)C(O)(c1ccccc1)C1CCCCC1.Cl` (stereo not given) [OXYBUTYNIN CHLORIDE], the “Bacterial Biotransformation” value was “Compound NOT metabolized”.

Conditions: human gut metagenome, 24 h, 2 µM
Remark: another data set of the same source
For `C=CCN1CC[C@]23c4c5ccc(O)c4O[C@H]2C(=O)CC[C@@]3(O)[C@H]1C5` [NALOXONE], the “Bacterial Biotransformation” value was “Compound NOT metabolized”. For `CCN(CC)CC#CCOC(=O)C(O)(c1ccccc1)C1CCCCC1.Cl` (stereo not given) [OXYBUTYNIN CHLORIDE], the “Bacterial Biotransformation” value was “Compound metabolized”.

Conditions: human gut metagenome, 24 h, 2 µM
Remark: another data set of the same source
With `C=CCN1CC[C@]23c4c5ccc(O)c4O[C@H]2C(=O)CC[C@@]3(O)[C@H]1C5` [NALOXONE] the “Bacterial Biotransformation” value was “Compound NOT metabolized”. With `CCN(CC)CC#CCOC(=O)C(O)(c1ccccc1)C1CCCCC1.Cl` (stereo not given) [OXYBUTYNIN CHLORIDE] the “Bacterial Biotransformation” value was “Compound metabolized”.

Conditions: human gut metagenome, 24 h, 2 µM
Remark: another data set of the same source
For `C=CCN1CC[C@]23c4c5ccc(O)c4O[C@H]2C(=O)CC[C@@]3(O)[C@H]1C5` [NALOXONE], the “Bacterial Biotransformation” value was “Compound NOT metabolized”. For `CCN(CC)CC#CCOC(=O)C(O)(c1ccccc1)C1CCCCC1.Cl` (stereo not given) [OXYBUTYNIN CHLORIDE], the “Bacterial Biotransformation” value was “Compound metabolized”.

Conditions: human gut metagenome, 24 h, 2 µM
Remark: another data set of the same source
With `C=CCN1CC[C@]23c4c5ccc(O)c4O[C@H]2C(=O)CC[C@@]3(O)[C@H]1C5` [NALOXONE] the “Bacterial Biotransformation” value was “Compound NOT metabolized”. For `CCN(CC)CC#CCOC(=O)C(O)(c1ccccc1)C1CCCCC1.Cl` (stereo not given) [OXYBUTYNIN CHLORIDE], the “Bacterial Biotransformation” value was “Compound metabolized”.
